One compound from paper PMC4869360, “An allosteric role for receptor activity-modifying proteins in defining GPCR pharmacology” (Cell Discovery, 2016) can be followed below.

Format in all cases: cell-based
Holding throughout (conditions): Cos-7, mean±s.e.m., read-out: pEC50 mutant (converted)

Experiment [1] deals with T1, CT(a) receptor, W79A mutant (Homo sapiens, UniProt P30988, W79A).
T1 sequence (P30988 25-474 W79A): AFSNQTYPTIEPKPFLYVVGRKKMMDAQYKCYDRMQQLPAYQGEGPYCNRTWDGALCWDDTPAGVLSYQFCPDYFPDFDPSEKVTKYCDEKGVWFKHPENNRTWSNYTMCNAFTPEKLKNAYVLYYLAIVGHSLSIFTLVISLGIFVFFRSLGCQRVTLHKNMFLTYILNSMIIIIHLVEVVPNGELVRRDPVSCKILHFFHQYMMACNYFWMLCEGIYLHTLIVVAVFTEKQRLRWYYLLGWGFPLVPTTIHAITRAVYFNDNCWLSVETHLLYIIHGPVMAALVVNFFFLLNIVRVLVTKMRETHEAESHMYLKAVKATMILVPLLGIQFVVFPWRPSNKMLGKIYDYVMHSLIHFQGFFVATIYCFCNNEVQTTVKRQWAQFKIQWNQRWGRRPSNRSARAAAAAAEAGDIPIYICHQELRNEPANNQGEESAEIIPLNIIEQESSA
The experiment in a line: cAMP assay, W79A CT(a). The source says: (§1) This is the insert-negative form of the receptor and is referred to as hCT(a), to comply with International Union of Pharmacology guidelines. Myc tagged RAMP1 and untagged RAMP3 constructs were used for AMY receptor experiments.
(§2) Primers were purchased from Integrated DNA Technologies Ltd (Coralville, IA, USA). Kapa HiFi readymix (Kapa Biosystems, Wilmington, MA, USA) or Primestar HS enzymes (TaKaRa Bio, Kyoto, Japan) were substituted for Pfu polymerase.
(§3) After stimulation the reaction was stopped by removing media and adding 50 μl per well of ice-cold absolute ethanol. Plates were stored at −30 °C for up to 4 days before the measurement of cAMP was performed.
(cAMP levels reflect the balance of adenylyl cyclase and phosphodiesterase activity.)

Experiment [2] addresses T2, CT(a) receptor, Y131A mutant (Homo sapiens, UniProt P30988, Y131A).
T2 sequence (P30988 25-474 Y131A): T1 sequence (P30988 25-474 W79A) with A55W, Y107A
The experiment in a line: cAMP assay, Y131A CT(a).
Description: as §1, §2, §3

The target in experiment [3] is T3, CT(a) receptor, D101A mutant (Homo sapiens, UniProt P30988, D101A).
T3 sequence (P30988 25-474 D101A): T1 sequence (P30988 25-474 W79A) with A55W, D77A
The experiment in a line: cAMP assay, D101A CT(a).
Description: as §1, §2, §3

In experiment [4] the target is T4, CT(a) receptor, F102A mutant (Homo sapiens, UniProt P30988, F102A).
T4 sequence (P30988 25-474 F102A): T1 sequence (P30988 25-474 W79A) with A55W, F78A
The experiment in a line: cAMP assay, F102A CT(a).
Description: as §1, §2, §3

The structures appear in SMILES notation. Numbering of substitutions follows the chain as printed.

With `CC(C)C[C@H](NC(=O)CNC(=O)[C@H](C)NC(=O)[C@H](CC(C)C)NC(=O)[C@H](CCCNC(=N)N)NC(=O)[C@H](Cc1cnc[nH]1)NC(=O)[C@@H](NC(=O)[C@@H](NC(=O)[C@@H]1CSSC[C@H](NC(=O)[C@H](C)N)C(=O)N[C@@H](CC(=O)O)C(=O)N[C@@H]([C@@H](C)O)C(=O)N[C@@H](C)C(=O)N[C@@H]([C@@H](C)O)C(=O)N1)C(C)C)[C@@H](C)O)C(=O)N[C@@H](CC(C)C)C(=O)N[C@@H](CO)C(=O)N[C@@H](CCCNC(=N)N)C(=O)N[C@@H](CO)C(=O)NCC(=O)NCC(=O)N[C@H](C(=O)N[C@H](C(=O)N[C@@H](CCCCN)C(=O)N[C@@H](CC(N)=O)C(=O)N[C@@H](CC(N)=O)C(=O)N[C@@H](Cc1ccccc1)C(=O)N[C@H](C(=O)N1CCC[C@H]1C(=O)N[C@H](C(=O)N[C@@H](CC(N)=O)C(=O)N[C@H](C(=O)NCC(=O)N[C@@H](CO)C(=O)N[C@@H](CCCCN)C(=O)N[C@@H](C)C(=O)N[C@@H](Cc1ccccc1)C(N)=O)C(C)C)[C@@H](C)O)C(C)C)C(C)C)C(C)C` [hαCGRP, human αCGRP], the EC50 in experiment [1] was 447 nM; in experiment [2], 309 nM; in experiment [3], 309 nM; in experiment [4], 501 nM.
